According to the supplement of paper PMC11061612:

Columns and labels:
Paclitaxel = compound: CC(=O)O[C@H]1C(=O)[C@@]2(C)[C@H]([C@H](OC(=O)c3ccccc3)[C@]3(O)C[C@H](OC(=O)[C@H](O)[C@@H](NC(=O)c4ccccc4)c4ccccc4)C(C)=C1C3(C)C)[C@]1(OC(C)=O)CO[C@@H]1C[C@@H]2O [Paclitaxel]; conditions: max 3 µM
Procedure, shortened: (§1)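 Cancer cell lines were plated in 1536-well plates in 7.5 μl of DMEM/F12 or RPMI with 10% FBS and kept 24 hours at 37°C and 5% CO2 before 72 hours of dosing, with final DMSO typically 0.2%. CellTiter-Glo 2.0 luminescence measured viability, scaled between blank-well and DMSO-well means. Dose responses were fitted to a two-parameter logistic curve with a non-linear mixed effects model. This fit gives the single-agent IC50.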

Savolitinib = compound: C[C@@H](c1ccc2nccn2c1)n1nnc2ncc(-c3cnn(C)c3)nc21 [Savolitinib]; conditions: max 1 µM
Procedure, shortened: as §1

Etoposide = compound: COc1cc([C@@H]2c3cc4c(cc3[C@@H](O[C@@H]3O[C@@H]5CO[C@@H](C)O[C@H]5[C@H](O)[C@H]3O)[C@H]3COC(=O)[C@H]23)OCO4)cc(OC)c1O [Etoposide]; conditions: max 10 µM
Procedure, shortened: as §1

AZD7648 = compound: Cc1cc2ncnn2cc1Nc1ncc2c(n1)n(C1CCOCC1)c(=O)n2C [AZD7648]; conditions: max 10 µM
Procedure, shortened: as §1

AZD1390 = compound: CC(C)n1c(=O)n(C)c2cnc3cc(F)c(-c4ccc(OCCCN5CCCCC5)nc4)cc3c21 [AZD1390]; conditions: max 0.3 µM
Procedure, shortened: as §1

SRA737 = compound: N#Cc1cnc(Nc2cc(NC[C@H]3CNCCO3)c(C(F)(F)F)cn2)cn1 [SRA737]; conditions: max 10 µM
Procedure, shortened: as §1

AZD5153 = compound: COc1nnc2ccc(N3CCC(c4ccc(OCCN5CCN(C)C(=O)[C@H]5C)cc4)CC3)nn12 [AZD5153]; conditions: max 1 µM
Procedure, shortened: as §1

AZD4320 = compound: CN(CC[C@H](CSC1=CC=CC=C1)NC2=C(C=C(C=C2)S(=O)(=O)NC(=O)C3=CC=C(C=C3)N4CCC(CC4)[C@H](C5=CC=CC=C5C6=CC=C(C=C6)Cl)O)S(=O)(=O)C(F)(F)F)CCO [AZD4320]; conditions: max 1 µM
Procedure, shortened: as §1

Venetoclax = compound: CC1(C)CCC(CN2CCN(c3ccc(C(=O)NS(=O)(=O)c4ccc(NCC5CCOCC5)c([N+](=O)[O-])c4)c(Oc4cnc5[nH]ccc5c4)c3)CC2)=C(c2ccc(Cl)cc2)C1 [Venetoclax]; conditions: max 1 µM
Procedure, shortened: as §1

Alisertib = compound: COc1cc(Nc2ncc3c(n2)-c2ccc(Cl)cc2C(c2c(F)cccc2OC)=NC3)ccc1C(=O)O [Alisertib]; conditions: max 10 µM
Procedure, shortened: as §1

Trametinib = compound: CC(=O)Nc1cccc(-n2c(=O)n(C3CC3)c(=O)c3c(Nc4ccc(I)cc4F)n(C)c(=O)c(C)c32)c1 [Trametinib]; conditions: max 1 µM
Procedure, shortened: as §1

Olaparib = compound: O=C(c1cc(Cc2n[nH]c(=O)c3ccccc23)ccc1F)N1CCN(C(=O)C2CC2)CC1 [Olaparib]; conditions: max 10 µM
Procedure, shortened: as §1

SN-38 = compound: CCc1c2c(nc3ccc(O)cc13)-c1cc3c(c(=O)n1C2)COC(=O)[C@]3(O)CC [SN-38]; conditions: max 0.3 µM
Procedure, shortened: as §1

[1] = compound: O=C(Nc1ccc2[nH]nc(-c3ccncc3)c2c1)[C@@H]1CCN(CC(=O)N2CCN(c3ccc(-c4ncccn4)cc3)CC2)C1; conditions: max 5 µM
Procedure, shortened: as §1

Prexasertib = compound: COc1cccc(OCCCN)c1-c1cc(Nc2cnc(C#N)cn2)n[nH]1 [Prexasertib]; conditions: max 1 µM
Procedure, shortened: as §1

AZD8186 = compound: C[C@@H](Nc1cc(F)cc(F)c1)c1cc(C(=O)N(C)C)cc2c(=O)cc(N3CCOCC3)oc12 [AZD8186]; conditions: max 10 µM
Procedure, shortened: as §1

Palbociclib = compound: CC(=O)c1c(C)c2cnc(Nc3ccc(N4CCNCC4)cn3)nc2n(C2CCCC2)c1=O [Palbociclib]; conditions: max 10 µM
Procedure, shortened: as §1

AZD5363 = compound: C1CN(CCC1(C(=O)N[C@@H](CCO)C2=CC=C(C=C2)Cl)N)C3=NC=NC4=C3C=CN4 [AZD5363]; conditions: max 10 µM
Procedure, shortened: as §1

AZD0156 = compound: CN(C)CCCOc1ccc(-c2ccc3ncc4c(c3c2)n(C2CCOCC2)c(=O)n4C)cn1 [AZD0156]; conditions: max 3 µM
Procedure, shortened: as §1

SG3199 = compound: CC1=CN2[C@@H](C1)C=NC3=CC(=C(C=C3C2=O)OC)OCCCCCOC4=C(C=C5C(=C4)N=C[C@@H]6CC(=CN6C5=O)C)OC [SG3199]; conditions: max 0.001 µM
Procedure, shortened: as §1

AZD2811 = compound: CCN(CCO)CCCOc1ccc2c(Nc3cc(CC(=O)Nc4cccc(F)c4)[nH]n3)ncnc2c1 [AZD2811]; conditions: max 1 µM
Procedure, shortened: as §1

Lapatinib = compound: CS(=O)(=O)CCNCc1ccc(-c2ccc3ncnc(Nc4ccc(OCc5cccc(F)c5)c(Cl)c4)c3c2)o1 [Lapatinib]; conditions: max 10 µM
Procedure, shortened: as §1

Gemcitabine = compound: Nc1ccn([C@@H]2O[C@H](CO)[C@@H](O)C2(F)F)c(=O)n1 [Gemcitabine]; conditions: max 0.3 µM
Procedure, shortened: as §1

Selumetinib = compound: Cn1cnc2c(F)c(Nc3ccc(Br)cc3Cl)c(C(=O)NOCCO)cc21 [Selumetinib]; conditions: max 10 µM
Procedure, shortened: as §1

AZD6738 = compound: C[C@@H]1COCCN1C2=NC(=NC(=C2)C3(CC3)[S@](=N)(=O)C)C4=C5C=CNC5=NC=C4 [AZD6738]; conditions: max 10 µM
Procedure, shortened: as §1

Crizotinib = compound: C[C@@H](Oc1cc(-c2cnn(C3CCNCC3)c2)cnc1N)c1c(Cl)ccc(F)c1Cl [Crizotinib]; conditions: max 10 µM
Procedure, shortened: as §1

Dasatinib = compound: CC1=C(C(=CC=C1)Cl)NC(=O)C2=CN=C(S2)NC3=CC(=NC(=N3)C)N4CCN(CC4)CCO [Dasatinib]; conditions: max 2 µM
Procedure, shortened: as §1

AZD5991 = compound: Cc1c2c(nn1C)CSCc1cc(n(C)n1)CSc1cc(c3ccccc3c1)OCCCc1c(C(=O)O)n(C)c3c-2c(Cl)ccc13 [AZD5991]; conditions: max 1 µM
Procedure, shortened: as §1

Doxorubicin = compound: COc1cccc2c1C(=O)c1c(O)c3c(c(O)c1C2=O)C[C@@](O)(C(=O)CO)C[C@@H]3O[C@H]1C[C@H](N)[C@H](O)[C@H](C)O1 [Doxorubicin]; conditions: max 1 µM
Procedure, shortened: as §1

Carboplatin = compound: C1CC(C1)(C(=O)[O-])C(=O)[O-].N.N.[Pt+2] [Carboplatin]; conditions: max 10 µM
Procedure, shortened: as §1

Taselisib = compound: Cc1nc(-c2cn3c(n2)-c2ccc(-c4cnn(C(C)(C)C(N)=O)c4)cc2OCC3)n(C(C)C)n1 [Taselisib]; conditions: max 10 µM
Procedure, shortened: as §1

MK-2206 = compound: NC1(c2ccc(-c3nc4ccn5c(=O)[nH]nc5c4cc3-c3ccccc3)cc2)CCC1 [MK-2206]; conditions: max 10 µM
Procedure, shortened: as §1

Gefitinib = compound: COc1cc2ncnc(Nc3ccc(F)c(Cl)c3)c2cc1OCCCN1CCOCC1 [Gefitinib]; conditions: max 10 µM
Procedure, shortened: as §1

5-Fluorouracil = compound: O=c1[nH]cc(F)c(=O)[nH]1 [5-Fluorouracil]; conditions: max 20 µM
Procedure, shortened: as §1

AZD1775 = compound: C=CCn1c(=O)c2cnc(Nc3ccc(N4CCN(C)CC4)cc3)nc2n1-c1cccc(C(C)(C)O)n1 [AZD1775]; conditions: max 3 µM
Procedure, shortened: as §1

| Cell Line | IC50, cell viability 72 h (Paclitaxel) | IC50, cell viability 72 h (Savolitinib) | IC50, cell viability 72 h (Etoposide) | IC50, cell viability 72 h (AZD7648) | IC50, cell viability 72 h (AZD1390) | IC50, cell viability 72 h (SRA737) | IC50, cell viability 72 h (AZD5153) | IC50, cell viability 72 h (AZD4320) | IC50, cell viability 72 h (Venetoclax) | IC50, cell viability 72 h (Alisertib) | IC50, cell viability 72 h (Trametinib) | IC50, cell viability 72 h (Olaparib) | IC50, cell viability 72 h (SN-38) | IC50, cell viability 72 h [1] | IC50, cell viability 72 h (Prexasertib) | IC50, cell viability 72 h (AZD8186) | IC50, cell viability 72 h (Palbociclib) | IC50, cell viability 72 h (AZD5363) | IC50, cell viability 72 h (AZD0156) | IC50, cell viability 72 h (SG3199) | IC50, cell viability 72 h (AZD2811) | IC50, cell viability 72 h (Lapatinib) | IC50, cell viability 72 h (Gemcitabine) | IC50, cell viability 72 h (Selumetinib) | IC50, cell viability 72 h (AZD6738) | IC50, cell viability 72 h (Crizotinib) | IC50, cell viability 72 h (Dasatinib) | IC50, cell viability 72 h (AZD5991) | IC50, cell viability 72 h (Doxorubicin) | IC50, cell viability 72 h (Carboplatin) | IC50, cell viability 72 h (Taselisib) | IC50, cell viability 72 h (MK-2206) | IC50, cell viability 72 h (Gefitinib) | IC50, cell viability 72 h (5-Fluorouracil) | IC50, cell viability 72 h (AZD1775) |
| --- | --- | --- | --- | --- | --- | --- | --- | --- | --- | --- | --- | --- | --- | --- | --- | --- | --- | --- | --- | --- | --- | --- | --- | --- | --- | --- | --- | --- | --- | --- | --- | --- | --- | --- | --- |
| HCC70 (Breast Carcinoma) | 143 nM | > 1000 nM | > 10000 nM | > 10000 nM | > 300 nM | 5460 nM | > 1000 nM | > 1000 nM | > 1000 nM | > 10000 nM | > 1000 nM | > 10000 nM | > 300 nM | > 5000 nM | 29.7 nM | 2020 nM | > 10000 nM | 2000 nM | > 3000 nM | > 1 nM | 224 nM | > 10000 nM | > 300 nM | > 10000 nM | 3000 nM | > 10000 nM | > 2000 nM | 201 nM | > 1000 nM | > 10000 nM | 4260 nM | 1920 nM | > 10000 nM | > 20000 nM | 1000 nM |
| HCC1395 (Breast Carcinoma) | 206 nM | > 1000 nM | > 10000 nM | > 10000 nM | > 300 nM | 2950 nM | > 1000 nM | > 1000 nM | > 1000 nM | > 10000 nM | > 1000 nM | > 10000 nM | 173 nM | > 5000 nM | 9.08 nM | > 10000 nM | > 10000 nM | > 10000 nM | > 3000 nM | > 1 nM | > 1000 nM | > 10000 nM | > 300 nM | > 10000 nM | 2790 nM | > 10000 nM | > 2000 nM | > 1000 nM | > 1000 nM | > 10000 nM | > 10000 nM | > 10000 nM | > 10000 nM | > 20000 nM | 965 nM |
